Bounds are passed on as bounds.

One series deals with sodium channel. The series can be described thus: Guanidine influx assay (14C-guanidine radiotracer flux, in vitro). The conditions noted are these: guanidine influx assay using a known cell line that expresses a sodium channel. The series is classed as cell-based, human or rat. In short, it runs like this: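 Aconitine holds channels open while 14C-guanidine enters human or rat sodium-channel-expressing cells in choline-substituted low-sodium saline, with test agent present at ambient temperature. Retained tracer is scintillation-counted and IC50 fitted by a four-parameter logistic model.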

A further series deals with CYP3A4 (Homo sapiens, UniProt P08684). Briefly: Cytochrome P450 (CYP450) Inhibition Assay, CYP3A4 (Vivid fluorescence, BOMCC substrate). The conditions noted are these: human, P450 Baculosomes (recombinant CYP3A4), probe BOMCC (Vivid substrate).
Sequence of CYP3A4 (P08684 whole entry): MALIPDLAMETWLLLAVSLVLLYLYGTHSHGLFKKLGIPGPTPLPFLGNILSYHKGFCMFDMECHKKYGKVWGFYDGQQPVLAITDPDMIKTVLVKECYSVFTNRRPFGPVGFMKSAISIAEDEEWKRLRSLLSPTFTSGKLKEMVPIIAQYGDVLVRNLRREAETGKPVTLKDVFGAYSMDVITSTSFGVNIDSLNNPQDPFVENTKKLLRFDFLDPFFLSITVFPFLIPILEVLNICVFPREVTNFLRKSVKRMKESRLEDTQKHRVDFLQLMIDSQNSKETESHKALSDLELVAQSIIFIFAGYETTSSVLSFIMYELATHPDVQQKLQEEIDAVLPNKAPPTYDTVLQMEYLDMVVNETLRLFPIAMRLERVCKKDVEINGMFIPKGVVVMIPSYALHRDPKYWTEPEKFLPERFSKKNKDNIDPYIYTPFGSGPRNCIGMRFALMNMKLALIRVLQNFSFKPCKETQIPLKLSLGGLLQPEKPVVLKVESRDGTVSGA

What is called melting point is the temperature, or range, at which the solid turns liquid. A word on the IC50: it is the point on the concentration scale where inhibition reaches its midpoint. In general, inhibition refers to the change of the read-out against control, counted positive when it falls. `O=C1N(Cc2ncccc2C(F)(F)F)c2ccccc2C12COc1c(Cl)cc3c(c12)OCCO3` (stereo not drawn) [Example 11.108, 6-chloro-1′-{[3-(trifluoromethyl)pyridin-2-yl]methyl}-2,3-dihydrospiro[furo[3,2-f][1,4]benzodioxine-9,3′-indol]-2′(1′H)-one] returned a melting point of 273 to 275 °C. The IC50 in the series with sodium channel was 1 to 10 µM. Further, the inhibition at 10 µM at CYP3A4 was less than 50%.
The matching figures for `O=C1N(Cc2ncccc2C(F)(F)F)c2ccccc2C12COc1ccc3c(c12)OCCO3` (stereo not drawn) [Example 11.109, 1′-{[3-(trifluoromethyl)pyridin-2-yl]methyl}-2,3-dihydrospiro[furo[3,2-f][1,4]benzodioxine-9,3′-indol]-2′(1′H)-one]: 245 to 247 °C, 1 to 10 µM and less than 50%.
The matching figures for `O=C1N(Cc2ccc(C(F)F)o2)c2ccccc2C12COc1cc3c(cc12)OCCO3` (stereo not drawn) [Example 11.110, 1-{[5-(difluoromethyl)furan-2-yl]methyl}-2,3-dihydrospiro[furo[2,3-g][1,4]benzodioxine-8,3′-indol]-2′(1′H)-one]: 173 to 175 °C, 0.001 to 0.1 µM and more than 50%.
The matching figures for `Cl.O=C1N(CC2CCNCC2)c2ccccc2C12COc1cc(F)c(F)cc12` (stereo not drawn) [Example 11.111, 5,6-difluoro-1′-(piperidin-4-ylmethyl)spiro[1-benzofuran-3,3′-indol]-2′(1′H)-one hydrochloride]: more than 200 °C, 0.001 to 0.1 µM and more than 50%.
On to `COCCNC(=O)c1cccc(CN2C(=O)C3(COc4cc5c(cc43)CCO5)c3ccccc32)c1` (stereo not drawn) [Example 12.1, N-(2-methoxyethyl)-3-[(2′-oxo-5,6-dihydrospiro[benzo[1,2-b:5,4-b′]difuran-3,3′-indol]-1′(2′H)-yl)methyl]benzamide], for which the melting point lay within 72 to 73 °C. Also, in the series on sodium channel, the IC50 lay within 0.1 to 1 µM. Besides, the inhibition at 10 µM at CYP3A4 is more than 50%.
For `CCCCCCN(C)C(=O)c1cccc(CN2C(=O)C3(COc4cc5c(cc43)CCO5)c3ccccc32)c1` (stereo not drawn) [Example 12.2, N-hexyl-N-methyl-3-[(2′-oxo-5,6-dihydrospiro[benzo[1,2-b:5,4-b′]difuran-3,3′-indol]-1′(2′H)-yl)methyl]benzamide], the melting point was 73 to 74 °C. Besides, the IC50 with sodium channel fell in the range of 0.1 to 1 µM. Also, the inhibition at 10 µM on CYP3A4 was more than 50%.
The matching figures for `CCC(CC)CNC(=O)c1cccc(CN2C(=O)C3(COc4cc5c(cc43)CCO5)c3ccccc32)c1` (stereo not drawn) [Example 12.3, N-(2-ethylbutyl)-3-[(2′-oxo-5,6-dihydrospiro[benzo[1,2-b:5,4-b′]difuran-3,3′-indol]-1′(2′H)-yl)methyl]benzamide]: 105 to 106 °C, 0.1 to 1 µM and more than 50%.
Turning to `Cc1ccc(NC(=O)c2cccc(CN3C(=O)C4(COc5cc6c(cc54)CCO6)c4ccccc43)c2)c(C)c1` (stereo not drawn) [Example 12.4, N-(2,4-dimethylphenyl)-3-[(2′-oxo-5,6-dihydrospiro[benzo[1,2-b:5,4-b′]difuran-3,3′-indol]-1′(2′H)-yl)methyl]benzamide], the melting point lay in the range of 234 to 235 °C. For the same compound, in the series on sodium channel, the IC50 lay within 0.1 to 1 µM. For the same compound, the inhibition at 10 µM on CYP3A4 was more than 50%.
The matching figures for `CCc1ccc(NC(=O)c2ccccc2CN2C(=O)C3(COc4cc5c(cc43)CCO5)c3ccccc32)cc1` (stereo not drawn) [Example 12.8, N-(4-ethylphenyl)-2-[(2′-oxo-5,6-dihydrospiro[benzo[1,2-b:5,4-b′]difuran-3,3′-indol]-1′(2′H)-yl)methyl]benzamide]: more than 230 °C, not below 10 µM and less than 50%.
The corresponding values for `CCc1ccccc1NC(=O)c1ccccc1CN1C(=O)C2(COc3cc4c(cc32)CCO4)c2ccccc21` (stereo not drawn) [Example 12.9, N-(2-ethylphenyl)-2-[(2′-oxo-5,6-dihydrospiro[benzo[1,2-b:5,4-b′]difuran-3,3′-indol]-1′(2′H)-yl)methyl]benzamide] are 184 to 186 °C, 1 to 10 µM and more than 50%.
The matching figures for `Cc1ccc(NC(=O)c2ccccc2CN2C(=O)C3(COc4cc5c(cc43)CCO5)c3ccccc32)c(C)c1` (stereo not drawn) [Example 12.10, N-(2,4-dimethylphenyl)-2-[(2′-oxo-5,6-dihydrospiro[benzo[1,2-b:5,4-b′]difuran-3,3′-indol]-1′(2′H)-yl)methyl]benzamide]: 207 to 208 °C, 1 to 10 µM and more than 50%.
In turn, `COc1ccccc1NC(=O)c1ccccc1CN1C(=O)C2(COc3cc4c(cc32)CCO4)c2ccccc21` (stereo not drawn) [Example 12.11, N-(2-methoxyphenyl)-2-[(2′-oxo-5,6-dihydrospiro[benzo[1,2-b:5,4-b′]difuran-3,3′-indol]-1′(2′H)-yl)methyl]benzamide] returned a melting point of 172 to 174 °C. The IC50 in the series with sodium channel was in the range of 1 to 10 µM. The inhibition at 10 µM on CYP3A4 is more than 50%.
The matching figures for `O=C(Nc1ccccc1F)c1ccccc1CN1C(=O)C2(COc3cc4c(cc32)CCO4)c2ccccc21` (stereo not drawn) [Example 12.12, N-(2-fluorophenyl)-2-[(2′-oxo-5,6-dihydrospiro[benzo[1,2-b:5,4-b′]difuran-3,3′-indol]-1′(2′H)-yl)methyl]benzamide]: 195 to 197 °C, 0.1 to 1 µM and more than 50%.
`O=C(Nc1cccc(Cl)c1)c1ccccc1CN1C(=O)C2(COc3cc4c(cc32)CCO4)c2ccccc21` (stereo not drawn) [Example 12.13, N-(3-chlorophenyl)-2-[(2′-oxo-5,6-dihydrospiro[benzo[1,2-b:5,4-b′]difuran-3,3′-indol]-1′(2′H)-yl)methyl]benzamide] registered a melting point of more than 230 °C. Besides, the IC50 in the series on sodium channel lay in the range of 1 to 10 µM. For the same compound, the inhibition at 10 µM at CYP3A4 was more than 50%.
The matching figures for `Cc1c(F)cccc1NC(=O)c1ccccc1CN1C(=O)C2(COc3cc4c(cc32)CCO4)c2ccccc21` (stereo not drawn) [Example 12.14, N-(3-fluoro-2-methylphenyl)-2-[(2′-oxo-5,6-dihydrospiro[benzo[1,2-b:5,4-b′]difuran-3,3′-indol]-1′(2′H)-yl)methyl]benzamide]: more than 230 °C, 0.1 to 1 µM and more than 50%.
The corresponding values for `CCCCCCCNC(=O)c1ccccc1CN1C(=O)C2(COc3cc4c(cc32)CCO4)c2ccccc21` (stereo not drawn) [Example 12.15, N-heptyl-2-[(2′-oxo-5,6-dihydrospiro[benzo[1,2-b:5,4-b′]difuran-3,3′-indol]-1′(2′H)-yl)methyl]benzamide] are 196 to 198 °C, 1 to 10 µM and more than 50%.
As for `O=C(NCc1ccccc1Cl)c1ccccc1CN1C(=O)C2(COc3cc4c(cc32)CCO4)c2ccccc21` (stereo not drawn) [Example 12.16, N-(2-chlorobenzyl)-2-[(2′-oxo-5,6-dihydrospiro[benzo[1,2-b:5,4-b′]difuran-3,3′-indol]-1′(2′H)-yl)methyl]benzamide], the melting point was 148 to 150 °C. For the same compound, the IC50 with sodium channel lay in the range of 0.1 to 1 µM. Besides, the inhibition at 10 µM at CYP3A4 is more than 50%.
The corresponding values for `O=C(c1ccccc1CN1C(=O)C2(COc3cc4c(cc32)CCO4)c2ccccc21)N1CCCCC1` (stereo not drawn) [Example 12.17, 1′-[2-(piperidin-1-ylcarbonyl)benzyl]-5,6-dihydrospiro[benzo[1,2-b:5,4-b′]difuran-3,3′-indol]-2′(1′H)-one] are 168 to 170 °C, 1 to 10 µM and more than 50%.
Turning to `CCCCNC(=O)c1ccccc1CN1C(=O)C2(COc3cc4c(cc32)CCO4)c2ccccc21` (stereo not drawn) [Example 12.18, N-butyl-2-[(2′-oxo-5,6-dihydrospiro[benzo[1,2-b:5,4-b′]difuran-3,3′-indol]-1′(2′H)-yl)methyl]benzamide], the melting point lay within 176 to 178 °C. For the same compound, in the series on sodium channel, the half-maximal inhibitory concentration (IC50) is 1 to 10 µM. In addition, at CYP3A4, the inhibition at 10 µM was more than 50%.
Compound `Cc1cccc(NC(=O)c2ccccc2CN2C(=O)C3(COc4cc5c(cc43)CCO5)c3ccccc32)c1` (stereo not drawn) [Example 12.19, N-(3-methylphenyl)-2-[(2′-oxo-5,6-dihydrospiro[benzo[1,2-b:5,4-b′]difuran-3,3′-indol]-1′(2′H)-yl)methyl]benzamide] showed a melting point of 229 to 231 °C. Moreover, the IC50 in the series with sodium channel lay in the range of 1 to 10 µM. For the same compound, on CYP3A4, the inhibition at 10 µM is more than 50%.
The corresponding values for `Cc1ccc(F)c(NC(=O)c2ccccc2CN2C(=O)C3(COc4cc5c(cc43)CCO5)c3ccccc32)c1` (stereo not drawn) [Example 12.20, N-(2-fluoro-5-methylphenyl)-2-[(2′-oxo-5,6-dihydrospiro[benzo[1,2-b:5,4-b′]difuran-3,3′-indol]-1′(2′H)-yl)methyl]benzamide] are 214 to 216 °C, 1 to 10 µM and more than 50%.
The corresponding values for `Cc1cccc(NC(=O)c2ccccc2CN2C(=O)C3(COc4cc5c(cc43)CCO5)c3ccccc32)c1C` (stereo not drawn) [Example 12.21, N-(2,3-dimethylphenyl)-2-[(2′-oxo-5,6-dihydrospiro[benzo[1,2-b:5,4-b′]difuran-3,3′-indol]-1′(2′H)-yl)methyl]benzamide] are more than 230 °C, 1 to 10 µM and more than 50%.
The matching figures for `CCc1ccccc1NC(=O)c1ccc(CN2C(=O)C3(COc4cc5c(cc43)CCO5)c3ccccc32)cc1` (stereo not drawn) [Example 12.34, N-(2-ethylphenyl)-4-[(2′-oxo-5,6-dihydrospiro[benzo[1,2-b:5,4-b′]difuran-3,3′-indol]-1′(2′H)-yl)methyl]benzamide]: 203 to 204 °C, 1 to 10 µM and more than 50%.

The values are drawn from patent US8263606B2 (Xenon Pharmaceuticals Inc., priority 2008, dated 2012).
